In ChEMBL document CHEMBL3132833, “3,4,2-Trimethoxy-trans-stilbene a potent CYP1B1 inhibitor” (Medchemcomm, 2014) one finds Ratio IC50 and IC50 data, which are given here for 13 compounds.

One may read the IC50 as the midpoint of a concentration-inhibition curve.

Converted amounts (≈) assume the structure as drawn.

The species named for experiment [1] is Homo sapiens. Briefly: Selectivity ratio of IC50 for human recombinant CYP1A1 to IC50 for human recombinant CYP1B1.
The species named for experiment [2] is Homo sapiens. In words: Selectivity ratio of IC50 for human recombinant CYP1A2 to IC50 for human recombinant CYP1B1.
The target of experiment [3] is T1, Cytochrome P450 1B1 (Homo sapiens, UniProt Q16678).
T1 sequence (Q16678 whole entry): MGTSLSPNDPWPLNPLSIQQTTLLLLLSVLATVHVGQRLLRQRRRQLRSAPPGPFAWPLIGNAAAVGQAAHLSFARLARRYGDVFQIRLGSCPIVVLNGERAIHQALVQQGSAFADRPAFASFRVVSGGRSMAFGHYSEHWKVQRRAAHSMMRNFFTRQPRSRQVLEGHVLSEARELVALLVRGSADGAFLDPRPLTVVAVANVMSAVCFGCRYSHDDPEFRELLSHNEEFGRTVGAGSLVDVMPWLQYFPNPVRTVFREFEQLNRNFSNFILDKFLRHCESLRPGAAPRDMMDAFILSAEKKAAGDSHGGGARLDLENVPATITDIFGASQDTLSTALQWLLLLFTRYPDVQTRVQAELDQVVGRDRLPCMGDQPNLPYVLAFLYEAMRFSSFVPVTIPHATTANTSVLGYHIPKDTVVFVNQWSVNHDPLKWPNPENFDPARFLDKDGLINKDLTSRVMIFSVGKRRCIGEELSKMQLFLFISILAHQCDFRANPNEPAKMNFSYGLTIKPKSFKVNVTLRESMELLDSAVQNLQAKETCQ
In words: Inhibition of human recombinant CYP1B1 after 15 mins by 7-ethoxyresorufin-O-deethylation-based spectrofluorimetry.

Experiment [4] deals with T2, Cytochrome P450 1A2 (Homo sapiens, UniProt P05177).
T2 sequence (P05177 whole entry): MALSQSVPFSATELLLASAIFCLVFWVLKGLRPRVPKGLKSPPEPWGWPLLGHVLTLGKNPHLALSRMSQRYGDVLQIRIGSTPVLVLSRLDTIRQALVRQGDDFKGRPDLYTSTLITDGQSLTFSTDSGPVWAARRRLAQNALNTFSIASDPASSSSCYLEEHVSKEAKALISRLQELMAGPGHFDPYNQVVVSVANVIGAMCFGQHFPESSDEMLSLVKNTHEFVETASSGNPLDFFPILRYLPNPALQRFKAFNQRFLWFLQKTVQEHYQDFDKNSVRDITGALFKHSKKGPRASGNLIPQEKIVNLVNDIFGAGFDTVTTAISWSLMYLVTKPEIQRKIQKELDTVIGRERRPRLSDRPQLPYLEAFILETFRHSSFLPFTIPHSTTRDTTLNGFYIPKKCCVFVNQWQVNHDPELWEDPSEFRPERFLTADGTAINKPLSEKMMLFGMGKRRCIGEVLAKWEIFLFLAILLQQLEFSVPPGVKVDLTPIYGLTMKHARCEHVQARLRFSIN
In words: Inhibition of human recombinant CYP1A2 after 15 mins by 7-ethoxyresorufin-O-deethylation-based spectrofluorimetry.

Experiment [5] deals with T3, Cytochrome P450 1A1 (Homo sapiens, UniProt P04798).
T3 sequence (P04798 whole entry): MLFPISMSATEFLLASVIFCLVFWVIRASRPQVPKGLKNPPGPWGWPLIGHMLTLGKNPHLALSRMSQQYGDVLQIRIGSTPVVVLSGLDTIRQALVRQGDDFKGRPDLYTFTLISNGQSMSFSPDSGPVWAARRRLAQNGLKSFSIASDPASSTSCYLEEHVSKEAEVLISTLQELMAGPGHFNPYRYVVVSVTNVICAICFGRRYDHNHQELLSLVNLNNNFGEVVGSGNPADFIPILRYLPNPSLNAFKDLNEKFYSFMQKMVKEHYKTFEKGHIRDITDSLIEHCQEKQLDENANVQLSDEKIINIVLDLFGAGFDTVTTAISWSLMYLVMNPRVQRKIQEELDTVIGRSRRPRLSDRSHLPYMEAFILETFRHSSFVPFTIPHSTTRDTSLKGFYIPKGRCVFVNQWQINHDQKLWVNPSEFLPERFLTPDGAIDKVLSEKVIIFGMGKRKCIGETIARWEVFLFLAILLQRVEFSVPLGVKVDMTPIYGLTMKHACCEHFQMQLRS
Briefly: Inhibition of human recombinant CYP1A1 after 15 mins by 7-ethoxyresorufin-O-deethylation-based spectrofluorimetry.

Experiment [6] relates to Col2. In words: Cytotoxicity against human Col2 cells. The class given is functional, cell-based.

For `COc1ccc(/C=C/c2ccc(OC)c(OC)c2)c(OC)c1`, the Ratio IC50 was 2.4 in experiment [1] and above 480 in experiment [2]. The IC50 is 210 nM in experiment [3], above 100000 nM in experiment [4] and 510 nM in experiment [5].

Take `COc1cc(OC)c(OC)cc1/C=C/c1ccc(OC)c(OC)c1`: the Ratio IC50 in experiment [1] was 0.4; in experiment [2], above 22.5. Further, the IC50 in experiment [3] is 4440 nM; in experiment [4] it was above 100000 nM; in experiment [5] it was 1780 nM.

Consider `COc1cc(O)cc(/C=C/c2ccc(O)cc2)c1`, for which the IC50 in experiment [3] was determined as 2100 nM.

Take `COc1ccc(/C=C/c2ccccc2)cc1OC`: the Ratio IC50 in experiment [1] came out at 1.5; in experiment [2], 20.1. In addition, the IC50 in experiment [3] amounted to 300 nM; in experiment [4], 6040 nM; in experiment [5] it was 440 nM.

Consider `COc1ccc(OC)c(/C=C/c2ccc(OC)c(OC)c2)c1`, for which the Ratio IC50 in experiment [1] is 0.8; in experiment [2] it was above 160. Besides, the IC50 in experiment [3] is 620 nM; in experiment [4], above 100000 nM; in experiment [5] it was 500 nM.

`COc1ccccc1/C=C/c1ccc(OC)c(OC)c1`: the Ratio IC50 was determined as 90 in experiment [1] and 830 in experiment [2]. For the same compound, the IC50 in experiment [3] was determined as 4 nM; in experiment [4], 3320 nM; in experiment [5], 360 nM.

Turning to `COc1ccc(/C=C/c2c(OC)cccc2OC)cc1OC`, the Ratio IC50 in experiment [1] is 0.74; in experiment [2] it was 7.5. The IC50 in experiment [3] was found to be 310 nM; in experiment [4] it was 2310 nM; in experiment [5] it was 230 nM.

Turning to `COc1ccc(/C=C/c2cccc(OC)c2OC)cc1OC`, the results for the Ratio IC50 in experiment [1] and in experiment [2] were 1.2 and 43.3, respectively. In addition, the IC50 in experiment [3] was 370 nM; in experiment [4], 16000 nM; in experiment [5], 450 nM.

As to `COc1cc(OC)c(/C=C/c2ccc(OC)c(OC)c2)c(OC)c1`, the Ratio IC50 in experiment [1] was 0.9; in experiment [2], above 333. Moreover, the IC50 was 300 nM in experiment [3], above 100000 nM in experiment [4] and 270 nM in experiment [5].

Turning to `COc1ccc(/C=C/c2ccc(OC)c(OC)c2OC)cc1OC`, the Ratio IC50 in experiment [1] is 1.2; in experiment [2], above 24. For the same compound, the figures for the IC50 in experiment [3], in experiment [4] and in experiment [5] were 4170 nM, above 100000 nM and 5180 nM, respectively.

With `COc1ccc(/C=C/c2cc(O)cc(O)c2)cc1` [RESVERATROL 4'-METHYL ETHER], the IC50 in experiment [3] was 800 nM.

As to `COc1cc(/C=C/c2ccc(OC)cc2OC)cc(OC)c1`, in experiment [6], the IC50 worked out at 0.8 µg/mL (≈ 2.66 µM).

On to `COc1cc(/C=C/c2ccc(O)cc2)cc(OC)c1` [PTEROSTILBENE], for which, in experiment [3], the IC50 worked out at 1400 nM.
